{"source": "patent US20260207626A1", "about": "“SYNTHETIC TRITERPENOIDS AND COMPOSITIONS THEREOF IN WEIGHT MANAGEMENT, SKELETAL MUSCLE FUNCTION, AND APPETITE SUPPRESSION” (The Board of Regents of the University of Texas System, priority 2022, published 2026)", "key": {"[1]": {"test": "Energy expenditure (Promethion Metabolic Analyzer) in mice fed HFD with or without CDDO-EA, LFD or HFD pair-fed", "format": "in vivo, C57BL/6J mice", "conditions": "HFD + CDDO-EA (0.04%), days 3-9", "method": "FIG. 22A and FIG. 22B. […] FIG. 22A. EE was measured 289 times in a 24-hour cycle at each day from 3-9 days of the experimental feeding. FIG. 22B. Average EE for days 3-9 of experimental feeding. C57BL/6J mice were fed a HFD with or without incorporation of CDDO-EA (diet containing 0.04% CDDO-EA) or LFD or HFD pair-fed for 6 weeks (n=5).\nC57BL/6J mice (6-8 weeks old, male, strain #000664, The Jackson Laboratory) were divided into four (4) groups (i)-(iv)): (i) ad libitum Low fat caloric content (LFD-10% of total calories from fat caloric content, #TD.08806, Envigo), (ii) ad libitum HFD (60% of total calories from fat caloric content, #TD.06414, Envigo), (iii) HFD+CDDO-EA (diet containing 0.04% CDDO-EA), and (iv) HFD pair-fed to food intake of mice fed HFD+CDDO-EA. The study was for 6 weeks (42 days) (performed at Vanderbilt Metabolic Mouse Phenotyping Center (VMMPC)). Mice were singly housed in a Promethion Metabolic Analyzer and were monitored continuously for 7 days to assess feeding and EE."}, "[2]": {"test": "Body weight of mice fed LFD or HFD with or without CDDO-EA in the chow for 6 weeks", "format": "in vivo, C57B16/J mice", "excerpt": "To assess the protective effects of CDDO-EA from obesity and insulin resistance, C57B16/J mice (6-8 weeks old, male, strain #000664, The Jackson Laboratory) were used. The animals were fed a Low Fat diet (LFD) (10% total calories from fat, […]) or a High Fat diet (HFD) (60% of total calories from fat) incorporated with or without CDDO-EA (chow containing 0.04% CDDO-EA) for six weeks. Feeding groups: The mice were put into one of four groups: • (i) HFD (60% total calories from fat), • (ii) HFD+0.04% CDDO-EA, • (iii) LFD (10% total calories from fat), • (iv) LFD+0.04% CDDO-EA. Unlike Shin et al. and Camer et al., where the CDDO was administered via gavage or in the drinking water, the present studies provide for a feed material (veterinary chow mix) formulated to include 400 mg CDDO-EA in 1 kilogram of veterinary chow, which is 0.04% CDDO-EA in 1 kilogram of veterinary chow. […] This is because the amount of chow without CDDO-EA (LFD) consumed by the animals was approximately the same amount of chow with CDDO-EA consumed by the animals (LFD+CDDO-EA) (See Table 3). Data were statistically analyzed by One-Way ANOVA, Two-Way ANOVA with repeated measures, or Two-Way ANOVA with Tukey's multiple comparison test. Throughout the collection of blood samples, OGTTs, and measurement of bodyweight, mice were unrestrained and awake. Blood samples were collected via tail snip before start of experimental feeding and then every two weeks. Oral glucose tolerance tests (OGTTs) were performed after the six-week experimental feeding, and blood samples were collected via tail snip during the OGTT. For OGTT, mice were given 2 g of glucose/kg of body weight by gavage after a five hour fast (36). Glucose levels were measured using a glucometer (Contour), and insulin concentrations were measured using an ELISA (Mercodia). Mice were weighed once a week. Glucose and insulin serum levels were measured every two weeks."}, "THP-1 macrophages": {"tested_on": "THP-1 macrophages", "test": "Bio-Plex Pro human 17-plex cytokine/chemokine panel in THP-1 macrophages exposed to CDDO-EA and LPS", "format": "cell-based", "method": "THP-1 monocytes were plated in 24-well plate at 15×10^4 cells/0.5 ml/well in growth medium plus 100 ng/ml PMA into each well and cultured at 37° C. with 5% CO2 incubator for 48 h for differentiation to macrophages. […] Supernatants were collected and stored at −80° C. until analysis. Cytokines and chemokines were measured and quantified using a Bio-Plex Pro human cytokines group I, 17-plex ELISA Kit (Bio-Rad) according to the manufacturer's instructions."}, "[3]": {"conditions": "500 nM CDDO-EA for 1 hr then 100 ng/ml LPS for 6 hr"}}, "note": "Entries after “also recorded” stand apart in the source; their conditions may differ.", "data": [{"compound": "CCNC(=O)[C@]12CCC(C)(C)C[C@H]1C1C(=O)C=C3[C@@]4(C)C=C(C#N)C(=O)C(C)(C)[C@@H]4CC[C@@]3(C)[C@]1(C)CC2", "note": "(stereo partly drawn) [CDDO-EA, (4aS,6aR,6bS,8aR,12aS,14bS)-11-cyano-N-ethyl-2,2,6a,6b,9,9,12a-heptamethyl-10,14-dioxo-1,3,4,5,6,6a,6b, 7,8,8a,9,10,12a, 14,14a, 14b-hexadecahydropicene-4a (2H)-carboxamide]", "values": [{"measurement": "energy expenditure (EE)", "setting": "[1]", "value": "does not affect EE; also recorded: does not affect energy expenditure"}, {"measurement": "difference in weight between mice fed a high fat diet and mice fed a high fat diet incorporated with CDDO-EA", "setting": "[2]; 0.04% CDDO-EA, 6 weeks", "value": 66.8, "unit": "%"}, {"measurement": "Average Weight (g) of Mice", "setting": "[2]; HFD + CDDO-EA (0.04%), week 1", "value": "23.4 ± 0.5", "unit": "g"}, {"measurement": "Average Weight (g) of Mice", "setting": "[2]; HFD + CDDO-EA (0.04%), week 2", "value": "23.2 ± 0.5", "unit": "g"}, {"measurement": "Average Weight (g) of Mice", "setting": "[2]; HFD + CDDO-EA (0.04%), week 3", "value": "24.6 ± 0.5", "unit": "g"}, {"measurement": "Average Weight (g) of Mice", "setting": "[2]; HFD + CDDO-EA (0.04%), week 4", "value": "24.1 ± 0.5", "unit": "g"}, {"measurement": "Average Weight (g) of Mice", "setting": "[2]; HFD + CDDO-EA (0.04%), week 5", "value": "25.4 ± 0.5", "unit": "g"}, {"measurement": "Average Weight (g) of Mice", "setting": "[2]; HFD + CDDO-EA (0.04%), week 6", "value": "25.3 ± 0.5", "unit": "g"}, {"measurement": "body weight gain / obesity", "setting": "[2]; HFD + CDDO-EA (400 mg/kg diet, 0.04%), 6 weeks", "value": "did not have a significant increase in body weight; also recorded: significantly blocked gain weight; also recorded: prevented the excess weight gain; also recorded: inhibits weight gain and obesity in vivo; also recorded: did not evidence a significant weight gain; also recorded: prevents obesity"}, {"measurement": "Average Weight (g) of Mice", "setting": "[2]; HFD + CDDO-EA (diet containing 0.04% CDDO-EA), week 0", "value": "23.8 ± 0.5", "unit": "g"}, {"measurement": "significant weight gain prevented", "setting": "[2]; HFD incorporated with 0.04% CDDO-EA", "value": 66.8, "unit": "%"}, {"measurement": "Average Weight (g) of Mice", "setting": "[2]; LFD + CDDO-EA (0.04%), week 1", "value": "24.4 ± 0.9", "unit": "g"}, {"measurement": "Average Weight (g) of Mice", "setting": "[2]; LFD + CDDO-EA (0.04%), week 2", "value": "24.4 ± 0.8", "unit": "g"}, {"measurement": "Average Weight (g) of Mice", "setting": "[2]; LFD + CDDO-EA (0.04%), week 3", "value": "25.8 ± 0.7", "unit": "g"}, {"measurement": "Average Weight (g) of Mice", "setting": "[2]; LFD + CDDO-EA (0.04%), week 4", "value": "25.4 ± 0.7", "unit": "g"}, {"measurement": "Average Weight (g) of Mice", "setting": "[2]; LFD + CDDO-EA (0.04%), week 5", "value": "26.4 ± 0.6", "unit": "g"}, {"measurement": "Average Weight (g) of Mice", "setting": "[2]; LFD + CDDO-EA (0.04%), week 6", "value": "26.0 ± 0.4", "unit": "g"}, {"measurement": "Average Weight (g) of Mice", "setting": "[2]; LFD + CDDO-EA (diet containing 0.04% CDDO-EA), week 0", "value": "25.5 ± 1.0", "unit": "g"}, {"measurement": "LPS-induced IL-1β, IL-6 and MCP-1 production", "setting": "THP-1 macrophages; 500 nM CDDO-EA 1 hour then 100 ng/ml LPS 6 hours", "value": "primarily inhibited LPS-induced IL-1B, IL-6 and MCP-1 production; also recorded: blocks LPS induced IL-1β, IL-6, and MCP-1 secretion"}, {"measurement": "IFN-γ", "setting": "THP-1 macrophages; 500 nM CDDO-EA alone, no LPS", "value": "24.78 ± 20.55", "unit": "pg/mL"}, {"measurement": "IL-1β", "setting": "THP-1 macrophages; 500 nM CDDO-EA alone, no LPS", "value": "2.19 ± 1.49", "unit": "pg/mL"}, {"measurement": "IL-4", "setting": "THP-1 macrophages; 500 nM CDDO-EA alone, no LPS", "value": "0.21 ± 0.12", "unit": "pg/mL"}, {"measurement": "IL-6", "setting": "THP-1 macrophages; 500 nM CDDO-EA alone, no LPS", "value": "0.12 ± 0.02", "unit": "pg/mL"}, {"measurement": "IL-8", "setting": "THP-1 macrophages; 500 nM CDDO-EA alone, no LPS", "value": "6339.67 ± 1535.18", "unit": "pg/mL"}, {"measurement": "IL-17", "setting": "THP-1 macrophages; 500 nM CDDO-EA alone, no LPS", "value": "22.72 ± 9.47", "unit": "pg/mL"}, {"measurement": "MCP-1", "setting": "THP-1 macrophages; 500 nM CDDO-EA alone, no LPS", "value": "2.11 ± 1.35", "unit": "pg/mL"}, {"measurement": "MIP-1β", "setting": "THP-1 macrophages; 500 nM CDDO-EA alone, no LPS", "value": "3763.83 ± 1229.25", "unit": "pg/mL"}, {"measurement": "TNF-α", "setting": "THP-1 macrophages; 500 nM CDDO-EA alone, no LPS", "value": "128.33 ± 38.63", "unit": "pg/mL"}, {"measurement": "G-CSF", "setting": "THP-1 macrophages; [3]", "value": "10.72 ± 4.71", "unit": "pg/mL"}, {"measurement": "IFN-γ", "setting": "THP-1 macrophages; [3]", "value": "114.38 ± 5.43", "unit": "pg/mL"}, {"measurement": "IL-1β", "setting": "THP-1 macrophages; [3]", "value": "64.65 ± 17.12", "unit": "pg/mL"}, {"measurement": "IL-2", "setting": "THP-1 macrophages; [3]", "value": "4.09 ± 1.51", "unit": "pg/mL"}, {"measurement": "IL-4", "setting": "THP-1 macrophages; [3]", "value": "1.55 ± 0.18", "unit": "pg/mL"}, {"measurement": "IL-6", "setting": "THP-1 macrophages; [3]", "value": "12.67 ± 5.50", "unit": "pg/mL"}, {"measurement": "IL-8", "setting": "THP-1 macrophages; [3]", "value": "9691.33 ± 1268.42", "unit": "pg/mL"}, {"measurement": "IL-12", "setting": "THP-1 macrophages; [3]", "value": "2.00 ± 1.00", "unit": "pg/mL"}, {"measurement": "IL-17", "setting": "THP-1 macrophages; [3]", "value": "40.16 ± 8.13", "unit": "pg/mL"}, {"measurement": "MCP-1", "setting": "THP-1 macrophages; [3]", "value": "11.05 ± 1.65", "unit": "pg/mL"}, {"measurement": "MIP-1β", "setting": "THP-1 macrophages; [3]", "value": "11212.50 ± 877.01", "unit": "pg/mL"}, {"measurement": "TNF-α", "setting": "THP-1 macrophages; [3]", "value": "8237.33 ± 1137.80", "unit": "pg/mL"}]}]}
